The source of these data is patent publication US20040214867A1, “Quaternary salts of n-substituted cyclic or acyclic amines as pharmaceuticals” (priority 2003, published 2004).

For this assay, the system named is citric acid-induced cough responses. The assay is described as follows: Citric acid-induced cough in conscious guinea-pigs (aerosol pre-treatment). Type of assay: in vivo, guinea-pig. Particulars: aerosol 10.0 mg/ml immediately before exposure to citric acid (1M); compared with control (procaine) pre-treated guinea pigs; 15 minute observation period. The text has this: The following method is one of the general methods available to determine the antitussive activity of the compounds of the present invention.
Male albino Dunkin-Hartley strain guinea-pigs (weight 300-400 g) can be obtained from various commercial suppliers.
The method is a modification of that described by Adcock J. J., Schneider C. and Smith T. W., “Effects of Morphine and a Novel Opioid Pentapeptide BW443C, on Cough, Nociception and Ventilation in the Unanaesthetized Guinea-pig”, Br. J. Pharmacol., 93, 93-100 (1988). […]
Cylinder air is introduced into the exposure chamber at a flow rate of 1 liter/min maintained by a needle valve and monitored by a rotameter. […]
Cough responses are induced by exposure to an aerosol of citric acid (1M) for 10 minutes. Animals are continuously monitored by trained observer, and the number of coughs are counted during a 15 minute period from commencement of the citric acid aerosol administration. […]
The three types of response are differentiated primarily by sound and visual observation. […] Each cough is marked on the Grass polygraph paper trace, and from these record numbers, frequency and time of onset of coughs are determined. […]
Quantities of drugs are weighed out and dissolved in a vehicle. […] The sequence of pre-treatment administration is determined according to a 4×4 Latin Square design. […]

`CC[N+](C)(CC)CCOC(=O)c1ccc(N)cc1.[I-]` [N-methyl-procaine iodide, 2-[(4-Aminobenzoyl)oxy]-N,N-diethyl-N-methylethanaminium iodide]: the “inhibition of cough responses” value is over 50%.
